Results reported in US8187646B2, “Nucleotide pyrophosphatase inhibitor and coenzyme regenerating systems” (Puratos N.V., priority 2004, dated 2012).
“Also recorded” adds a separate entry of the source.

Tests used:
[1] = system: wheat flour nucleotide pyrophosphatase (NPP); experiment: In vitro NPP inhibition studies (NAD+ degradation by wheat flour extract); format: biochemical; settings: for ability to inhibit NPP in wheat flour: ADP about 1-2 mM, phosphates tested at 10 g/l; for reactivation of the inhibited enzyme by divalent metal ions: addition of divalent ions (Mg2+, Mn2+; excess MgCl2, MnCl2, ZnCl2, CaCl2)
Experimental: As an example of nucleotide pyrophosphatase inhibition, pyrophosphate was tested.
To perform in vitro nucleotide pyrophosphatase (NPP) inhibition studies, a reaction mixture of 5 ml was made containing 2.5 ml of flour extract (see Example 12), 1.5 ml of NAD^+ or NADH solution and 1 ml of potential inhibitor. The coenzymes and inhibitors were dissolved in a 0.2 M acetate buffer at pH 5.5. The final coenzyme concentration was 0.5 mM, unless otherwise mentioned. The different phosphates ([…] (Na2H2P2O7), sodium metaphosphate ((NaPO3)n), pentasodium tripolyphosphate (Na5P3O10), tetrasodium pyrophosphate (Na4P2O7) and dicalcium pyrophosphate (CaH2P2O7)) were tested in a concentration of 10 g/l. For the reactivation experiments with metal ions and to test a synergetic effect of glycine with EDTA the reaction mixture was adapted: 500 μl of inhibitor was added together with 500 μl of cation or glycine instead of 1 ml inhibitor. For the reactivation experiments with metal ions, the chloride forms of the cations were used, i.e. MgCl2, MnCl2, ZnCl2 and CaCl2.
A flour extract was prepared based on the method described by Honold et al. (1966, Cereal Chemistry 43:517-528). To 5 g of flour, 25 ml of an aqueous 12.5% sucrose solution was added. The solution was homogenised with an UltraTurrax mixer (IKA Werke, Janke & Kunkel GmbH & CoKG, Staufen, Germany). This homogenised flour suspension was centrifuged during 5 minutes at 1000 rpm (77 g) (SS34 rotor, Sorvall RC 5B centrifuge). The supernatant was recovered and filtrated through Whatman No. 1 filter paper. The filtrate was used as crude flour extract. All steps were carried out between 0° C. and 5° C.

[2] = system: nicotinamide coenzymes NAD+/NADH in dough systems; experiment: Coenzyme (NAD+/NADH) concentrations in dough systems (mini doughs); parameters: species or system wheat; settings: 0.3 g calcium pyrophosphate per 100 g flour; before and after 60 minutes dough resting at 25° C.
Experimental: The oxidised (NAD^+) and reduced (NADH) form of the nicotinamide coenzymes were extracted from doughs with an acid and alkaline extraction method respectively.
The coenzymes, NAD^+ and NADH, can be determined with an isocratic reversed phase HPLC method on a Varian Prostar HPLC system. Separation of the coenzymes NAD^+ and NADH was carried out on a Chromsep Microspher 3C18 column (3 μm particle size, 4.6×100 mm, Chrompack). The mobile phase was 96% 0.15 M citrate-sodium phosphate buffer (pH 6.8) containing 1 mM EDTA, and 4% methanol (30° C.). The flow rate was 0.5 ml/min and detection was accomplished by UV absorption at 260 nm (Varian Prostar UV 320).
All samples were filtrated (Sartorius Minisart RC15, 0.45 μm) and sample injection (20 μl) was accomplished with a Varian Prostar 410 autosampler. The nucleotide concentration was measured by the peak area of the chromatogram with calibration curves, which were prepared using a known amount of coenzymes.
Baking tests were performed with mini doughs (150 g).
The doughs were kneaded with a pin mixer during 4.5 minutes, after which they were incubated during 20 minutes at 25° C. The dough was sheeted and incubated again at 25° C. during 20 minutes, after which it was sheeted and incubated for 50 minutes at 36° C. and at a relative humidity of 80%. […] Bread volume after baking was determined by the rapeseed displacement method.

[3] = inhibitor at 4 mM, in vitro tests

With O=P([O-])([O-])OP(=O)([O-])OP(=O)([O-])[O-].[Na+].[Na+].[Na+].[Na+].[Na+] [tripolyphosphate, pentasodium tripolyphosphate (Na5P3O10)] the “ability to inhibit NPP in wheat flour” value [1] was “able to inhibit”.

O=C(O)CN(CCN(CC(=O)O)CC(=O)O)CC(=O)O [EDTA] was tested, and the “reactivation of the inhibited enzyme by divalent metal ions” value [1] was “reactivated partially” and the “inhibition of the wheat flour NPP” value ([1]; from a concentration of 4 mM EDTA on, in vitro) was “complete inhibition”.

With sodium metaphosphate ((NaPO3)n) the “ability to inhibit NPP in wheat flour” value [1] was “able to inhibit”.

For N[C@@H](CS)C(=O)O [L-cysteine], the “inhibition of the NPP” value [1, 3] was “inhibited the NPP at some extent”.

In the case of O=P([O-])(O)OP(=O)([O-])O.[Ca+2] [Ca-pyrophosphate, CaH2P2O7], the “inhibition of NAD+ degradation by a wheat flour extract” value (from here on “inhibition of NAD+ degradation”) ([1]; 50 to 100 mM Ca-pyrophosphate) is reported as “completely inhibit”.

O=P(O)(O)OP(=O)(O)O [pyrophosphate] was tested, and the “coenzyme concentrations (NAD+ and NADH) in dough” value [2] was “higher coenzyme concentrations were observed”, the “inhibition of NAD+ degradation” value ([1]; 10 mM pyrophosphate) was “Partial inhibition” and the “inhibition of NAD+ degradation” value ([1]; 20 mM pyrophosphate) was “Partial inhibition”. For the same compound, the “reactivation of the inhibited enzyme by divalent metal ions” value [1] was “This is not the case; also recorded: could not reactivate the enzyme” and the “mode of inhibition of wheat flour nucleotide pyrophosphatase” value ([1]; suggested: no reactivation by metal ions, pyrophosphate split into phosphate by flour extract) was “competitive inhibitor”.

In the case of O=P(O)(O)OP(=O)(O)O [sodium pyrophosphate, Na2H2P2O7], the “inhibition of the NPP enzyme” value ([1]; 100 mM sodium pyrophosphate) is reported as “completely inhibited”.

In the case of Nc1ncnc2c1ncn2[C@@H]1O[C@H](COP(=O)(O)OP(=O)(O)O)[C@@H](O)[C@H]1O [ADP], the “inhibition of the NPP” value ([1]; ADP 1 mM) is reported as “inhibit the NPP partially” and the “ability to inhibit NPP in wheat flour” value [1] is reported as “able to inhibit”.

With O[C@H](CS)[C@H](O)CS (racemic) [DTT, dithiothreitol] the “inhibition of the NPP” value [1, 3] was “inhibited the NPP at some extent”.
